In general, IC50 refers to the concentration needed to halve the response being measured.

Counter-ions that a name gives are not always drawn.

For this assay, the target named is hNav1.7 (Homo sapiens (Human), UniProt Q15858). The assay can be described thus: Patch voltage clamp electrophysiology (EP), Syncropatch 384PE, CHO cells stably expressing Nav1.7. In kind it is cell-based. The following applies: holding potential −50 mV, 7.5 min compound incubation, read-out: EP_SP hNav1.7 EVO IC50. An excerpt: Example 64c. Electrophysiological Assay (EP) (In Vitro Assay)
Sequence of hNav1.7 (Q15858 other isoform, or with tags, fused parts or gaps): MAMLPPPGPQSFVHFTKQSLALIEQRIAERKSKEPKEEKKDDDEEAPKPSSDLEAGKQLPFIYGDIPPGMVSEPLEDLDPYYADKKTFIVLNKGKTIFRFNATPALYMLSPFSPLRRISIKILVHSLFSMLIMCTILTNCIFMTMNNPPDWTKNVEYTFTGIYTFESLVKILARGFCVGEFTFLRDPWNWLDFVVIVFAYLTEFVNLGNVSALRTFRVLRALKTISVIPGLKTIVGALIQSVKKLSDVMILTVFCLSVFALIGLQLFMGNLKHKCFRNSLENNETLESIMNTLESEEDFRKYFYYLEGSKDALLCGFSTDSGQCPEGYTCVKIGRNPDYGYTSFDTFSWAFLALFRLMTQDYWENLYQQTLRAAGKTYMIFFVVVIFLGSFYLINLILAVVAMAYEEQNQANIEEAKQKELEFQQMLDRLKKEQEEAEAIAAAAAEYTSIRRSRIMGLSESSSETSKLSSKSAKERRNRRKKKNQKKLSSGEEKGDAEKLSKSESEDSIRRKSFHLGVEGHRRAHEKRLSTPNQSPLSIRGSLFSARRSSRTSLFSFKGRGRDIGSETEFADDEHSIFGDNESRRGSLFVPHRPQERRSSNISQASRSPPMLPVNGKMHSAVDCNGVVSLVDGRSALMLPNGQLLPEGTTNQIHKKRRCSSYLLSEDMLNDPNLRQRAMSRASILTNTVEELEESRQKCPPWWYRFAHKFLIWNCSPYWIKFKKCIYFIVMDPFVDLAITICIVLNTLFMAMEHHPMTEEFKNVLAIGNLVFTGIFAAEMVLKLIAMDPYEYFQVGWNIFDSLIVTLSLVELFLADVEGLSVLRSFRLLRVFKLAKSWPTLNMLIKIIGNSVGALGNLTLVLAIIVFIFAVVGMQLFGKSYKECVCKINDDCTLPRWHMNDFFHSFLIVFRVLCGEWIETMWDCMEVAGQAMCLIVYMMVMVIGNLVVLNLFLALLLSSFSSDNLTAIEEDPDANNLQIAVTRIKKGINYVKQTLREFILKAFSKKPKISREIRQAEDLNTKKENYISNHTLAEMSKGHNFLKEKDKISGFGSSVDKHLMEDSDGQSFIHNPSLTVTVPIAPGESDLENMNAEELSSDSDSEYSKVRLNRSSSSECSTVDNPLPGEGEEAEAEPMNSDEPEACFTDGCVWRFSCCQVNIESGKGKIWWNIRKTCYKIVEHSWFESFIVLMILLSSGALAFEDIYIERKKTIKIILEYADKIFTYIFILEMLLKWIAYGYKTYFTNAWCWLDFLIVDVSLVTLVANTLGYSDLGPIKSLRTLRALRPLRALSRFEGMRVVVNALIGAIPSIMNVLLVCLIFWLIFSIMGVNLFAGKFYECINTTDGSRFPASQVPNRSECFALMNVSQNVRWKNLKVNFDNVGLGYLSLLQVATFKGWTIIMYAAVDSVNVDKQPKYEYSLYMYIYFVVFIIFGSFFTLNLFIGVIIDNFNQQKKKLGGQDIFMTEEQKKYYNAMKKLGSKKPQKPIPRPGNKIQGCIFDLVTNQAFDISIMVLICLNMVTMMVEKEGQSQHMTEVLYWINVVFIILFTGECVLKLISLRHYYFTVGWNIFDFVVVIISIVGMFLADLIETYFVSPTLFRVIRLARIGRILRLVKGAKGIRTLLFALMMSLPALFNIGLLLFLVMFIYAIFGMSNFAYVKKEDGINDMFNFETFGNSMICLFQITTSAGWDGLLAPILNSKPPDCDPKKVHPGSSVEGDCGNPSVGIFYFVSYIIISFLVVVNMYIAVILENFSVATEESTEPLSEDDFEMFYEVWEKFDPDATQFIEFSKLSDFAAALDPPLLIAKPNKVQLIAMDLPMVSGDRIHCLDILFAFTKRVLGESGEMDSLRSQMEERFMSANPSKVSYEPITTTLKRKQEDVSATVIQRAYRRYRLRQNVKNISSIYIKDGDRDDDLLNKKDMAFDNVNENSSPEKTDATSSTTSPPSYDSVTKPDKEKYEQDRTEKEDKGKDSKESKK
Patch voltage clamp electrophysiology allows for the direct measurement and quantification of block of voltage-gated sodium channels (NaV's), and allows the determination of the time- and voltage-dependence of block which has been interpreted as differential binding to the resting, open, and inactivated states of the sodium channel (Hille, B., Journal of General Physiology (1977), 69: 497-515).
The following voltage clamp electrophysiology studies are performed on representative compounds using cells heterologously expressing Nav1.7 or Nav1.5 channels. cDNAs for Nav1.7 (NM_002977) and Nav1.5 (AC137587) are stably expressed in Chinese Hamstr Ovary (CHO) cells and CHL (Chinese Hamster Lung) cells respectively. Sodium currents are measured in the whole-cell configuration using Syncropatch 384PE (Nanlon Technologies, Germany). 1NPC®-384 chips with custom medium resistance and single hole mode are used. Internal solution consists of (in mM): […], 10 CsCl, 20 EGTA, and 10 Hepes (pH adjusted to 7.2); and external solution contains (in mM): 60 NMDG, 80 NaCl, 4 KCl, 1 MgCl2, 2 CaCl2, 2 D-Glucose monohydrate, 10 Hepes (pH adjusted to 7.4 with NaOH).
After system flushing, testing compounds are dissolved in external solution containing 0.1% Pluronic F-127. The chip is moved into the measuring head and the instrument primes the chip with external and internal solutions. 10 μl cells are added to the chip from a cell hotel, and a negative pressure of −50 mBar is applied to form a seal. Following treatment with seal enhancer solution and wash-off with external solution, negative pressure of −250 mbar is applied for 1 second to achieve the whole-cell configuration, followed by three washing steps in external solution. 20 μl of compounds is added to 40 μl in each well (1:3 dilution of compounds), and after mixing, 20 μl is removed so the volume is retained at 40 ul. After approximately 13 minutes recordings, 20 μl/well of 2 uM TTX, or 333 uM Tetracaine (for […]) is added to achieve full block.
For voltage protocol, an holding potential of −50 mV is applied during the whole experiment. A depolarizing step is applied to −10 mV for 10 ms, followed by a hyperpolarization step to −150 mV for 20 ms to allow channel recovery from inactivation. A second depolarizing step is applied from −150 mV to −10 mV for 10 ms, where currents are measured to derive blocking effects of compounds. Inhibition is determined based on 7.5 min of compound incubation.
Background: The patch-clamp technique gives a direct electrical read-out from membranes.
As to `Cc1nc(O[C@H]2CC[C@H](c3cccc(C(F)(F)F)c3)C[C@@H]2N2CCCC2)ccc1S(=O)(=O)Nc1ccncn1` [Example 29, 2-Methyl-N-(pyrimidin-4-yl)-6-(((1S,2S,4S)-2-(pyrrolidin-1-yl)-4-(3-(trifluoromethyl)phenyl)-cyclohexyl)oxy)pyridine-3-sulfonamide], the IC50 is 5.62 nM. As for `O=S(=O)(Nc1ccncn1)c1cnc(O[C@H]2CC[C@H](c3cccc(C(F)(F)F)c3)C[C@@H]2N2CCCC2)c(Cl)c1` [Example 18, 5-chloro-N-(pyrimidin-4-yl)-6-(((1S,2S,4S)-2-(pyrrolidin-1-yl)-4-(3-(trifluoromethyl)phenyl)-cyclohexyl)oxy)pyridine-3-sulfonamide], the figure is 0.388 nM. Consider `Cc1nc(O[C@H]2CC[C@H](c3cccc(C(F)(F)F)c3)C[C@@H]2N2CCOCC2)ccc1S(=O)(=O)Nc1ccncn1` [Example 55, 2-methyl-6-(((1S,2S,4S)-2-morpholino-4-(3-(trifluoro-methyl)phenyl)cyclohexyl)-oxy)-N-(pyrimidin-4-yl)pyridine-3-sulfonamide], for which the IC50 is 0.527 nM. For `CCN(C)[C@H]1C[C@@H](c2cccc(C(F)(F)F)c2)CC[C@@H]1Oc1ccc(S(=O)(=O)Nc2ccncn2)c(C)n1` [Example 48, 6-(((1S,2S,4S)-2-(Ethyl(methyl)amino)-4-(3-(trifluoromethyl)phenyl)cyclohexyl)oxy)-2-methyl-N-(pyrimidin-4-yl)pyridine-3-sulfonamide], the IC50 stood at 0.272 nM. Take `O=S(=O)(Nc1ccncn1)c1cnc(O[C@H]2CC[C@H](c3cccc(C(F)(F)F)n3)C[C@@H]2N2CCCC2)c(Cl)c1` [Example 40, 5-chloro-N-(pyrimidin-4-yl)-6-(((1S,2S,4S)-2-(pyrrolidin-1-yl)-4-(6-(trifluoromethyl)pyridin-2-yl)cyclohexyl)oxy)pyridine-3-sulfonamide]: the IC50 stood at 3.86 nM.

With `Cc1nc(O[C@H]2CC[C@H](c3cccc(C(F)(F)F)c3)C[C@@H]2N(C)C2CCC2)ccc1S(=O)(=O)Nc1ccncn1` [Example 35, 6-(((1S,2S,4S)-2-(Cyclobutyl(methyl)amino)-4-(3-(trifluoromethyl)phenyl)cyclohexyl)oxy)-2-methyl-N-(pyrimidin-4-yl)pyridine-3-sulfonamide], the IC50 is 0.597 nM. As to `CN(C)[C@H]1C[C@@H](c2cccc(C(F)(F)F)c2)CC[C@@H]1Nc1ccc(S(=O)(=O)Nc2ccncn2)nc1` [Example 5, 5-(((1S,2S,4S)-2-(Dimethylamino)-4-(3-(trifluoromethyl)phenyl)cyclohexyl)amino)-N-(pyrimidin-4-yl)pyridine-2-sulfonamide], the half-inhibitory concentration (IC50) stood at 8.33 nM. Take `Cc1nc(O[C@H]2CC[C@H](c3cc(C(F)(F)F)ccc3F)C[C@@H]2N(C)C)ccc1S(=O)(=O)Nc1ccncn1` [Example 43, 6-(((1S,2S,4S)-2-(Dimethylamino)-4-(2-fluoro-5-(trifluoromethyl)phenyl)cyclohexyl)oxy)-2-methyl-N-(pyrimidin-4-yl)pyridine-3-sulfonamide formate]: the IC50 was 0.687 nM.

Turning to `Cc1nc(O[C@H]2CC[C@H](c3cccc(OC(F)(F)F)c3)C[C@@H]2N(C)C)ccc1S(=O)(=O)Nc1ccncn1` [Example 28, 6-(((1S,2S,4S)-2-(Dimethylamino)-4-(3-(trifluoromethoxy)phenyl)cyclohexyl)oxy)-2-methyl-N-(pyrimidin-4-yl)pyridine-3-sulfonamide], the IC50 amounted to 0.664 nM. On to `O=S(=O)(Nc1ccncn1)c1ccc(O[C@H]2CC[C@H](c3cccc(C(F)(F)F)c3)C[C@@H]2N2CCCCC2)nc1` [Example 26, 6-(((1S,2S,4S)-2-(piperidin-1-yl)-4-(3-(trifluoromethyl)phenyl)cyclohexyl)oxy)-N-(pyrimidin-4-yl)pyridine-3-sulfonamide], for which the IC50 amounted to 1.16 nM.

In the case of `Cc1nc(O[C@H]2CC[C@H](c3ccc(F)c(C(F)(F)F)c3)C[C@@H]2N(C)C)ccc1S(=O)(=O)Nc1ccncn1` [Example 45, 6-(((1S,2S,4S)-2-(Dimethylamino)-4-(4-fluoro-3-(trifluoromethyl)phenyl)cyclohexyl)oxy)-2-methyl-N-(pyrimidin-4-yl)pyridine-3-sulfonamide formate], the IC50 is 0.473 nM. As for `Cc1nc(O[C@H]2CC[C@H](c3cccc(OC(F)(F)F)c3)C[C@@H]2N2CCCC2)ccc1S(=O)(=O)Nc1ccncn1` [Example 30, 2-Methyl-N-(pyrimidin-4-yl)-6-(((1S,2S,4S)-2-(pyrrolidin-1-yl)-4-(3-(trifluoromethoxy)phenyl)-cyclohexyl)oxy)pyridine-3-sulfonamide], the figure is 1.07 nM; as for `Cc1nc(O[C@H]2CC[C@H](c3cccc(C(F)(F)F)c3F)C[C@@H]2N(C)C)ccc1S(=O)(=O)Nc1ccncn1` [Example 46, 6-(((1S,2S,4S)-2-(Dimethylamino)-4-(2-fluoro-3-(trifluoromethyl)phenyl)cyclohexyl)oxy)-2-methyl-N-(pyrimidin-4-yl)pyridine-3-sulfonamide formate], 0.917 nM. For the compound `CN(C)[C@H]1C[C@@H](c2cccc(C(F)(F)F)c2)CC[C@@H]1Oc1ncc(S(=O)(=O)Nc2ccncn2)cc1Br` [Example 20, 5-bromo-6-(((1S,2S,4S)-2-(dimethylamino)-4-(3-(trifluoromethyl)phenyl)cyclohexyl)oxy)-N-(pyrimidin-4-yl)pyridine-3-sulfonamide formate], the IC50 is 0.9 nM. Consider `Cc1nc(O[C@H]2CC[C@H](c3ccc(Cl)c(C(F)(F)F)n3)C[C@@H]2N(C)C)ccc1S(=O)(=O)Nc1ccncn1` [Example 62, 6-(((1S,2S,4S)-4-(5-chloro-6-(trifluoromethyl)pyridin-2-yl)-2-(dimethylamino)-cyclohexyl)oxy)-2-methyl-N-(pyrimidin-4-yl)pyridine-3-sulfonamide], for which the IC50 worked out at 1.53 nM. As for `Cc1cc([C@H]2CC[C@H](Oc3ccc(S(=O)(=O)Nc4ccncn4)c(C)n3)[C@@H](N(C)C)C2)cc(C(F)(F)F)c1` [Example 58, 6-(((1S,2S,4S)-2-(dimethyl-amino)-4-(3-methyl-5-(trifluoromethyl)phenyl)-cyclohexyl)oxy)-2-methyl-N-(pyrimidin-4-yl)pyridine-3-sulfonamide], the figure is 0.351 nM; as for `Cc1nc(O[C@H]2CC[C@H](c3cccc(OC(F)F)c3)C[C@@H]2N(C)C)ccc1S(=O)(=O)Nc1ccncn1` [Example 52, 6-(((1S,2S,4S)-4-(3-(difluoromethoxy)phenyl)-2-(dimethylamino)cyclohexyl)oxy)-2-methyl-N-(pyrimidin-4-yl)pyridine-3-sulfonamide], 1.82 nM. On to `CCc1cc(S(=O)(=O)Nc2ccncn2)cnc1O[C@H]1CC[C@H](c2cccc(C(F)(F)F)c2)C[C@@H]1N(C)C` [Example 24, 6-(((1S,2S,4S)-2-(Dimethylamino)-4-(3-(trifluoromethyl)phenyl)cyclohexyl)oxy)-5-ethyl-N-(pyrimidin-4-yl)pyridine-3-sulfonamide formate], for which the IC50 stood at 8.33 nM. With `Cc1nc(O[C@H]2CC[C@H](c3cc(F)cc(C(F)(F)F)c3)C[C@@H]2N(C)C)ccc1S(=O)(=O)Nc1ccncn1` [Example 42, 6-(((1S,2S,4S)-2-(Dimethylamino)-4-(3-fluoro-5-(trifluoromethyl)phenyl)cyclohexyl)oxy)-2-methyl-N-(pyrimidin-4-yl)pyridine-3-sulfonamide], the IC50 turned out to be 0.646 nM. For `CN(C)[C@H]1C[C@@H](c2cccc(C(F)(F)F)c2)CC[C@@H]1Oc1cc(Cl)c(S(=O)(=O)Nc2ccncn2)cn1` [Example 31, 4-Chloro-6-(((1S,2S,4S)-2-(dimethylamino)-4-(3-(trifluoromethyl)phenyl)cyclohexyl)oxy)-N-(pyrimidin-4-yl)pyridine-3-sulfonamide], the IC50 was 10 nM. As for `CN(C)[C@H]1C[C@@H](c2cccc(SC(F)(F)F)c2)CC[C@@H]1Oc1ccc(S(=O)(=O)Nc2ccncn2)cn1` [Example 63, 6-(((1S,2S,4S)-2-(dimethy-lamino)-4-(3-((trifluoro-methyl)thio)phenyl)cyclohexyl)oxy)-N-(pyrimidin-4-yl) pyridine-3-sulfonamide], the IC50 is 1.05 nM. As for `Cc1nc(O[C@H]2CC[C@H](c3cccc(Cl)c3)C[C@@H]2N(C)C)ccc1S(=O)(=O)Nc1ccncn1` [Example 57, 6-(((1S,2S,4S)-4-(3-chloro-phenyl)-2-(dimethylamino)-cyclohexyl)oxy)-2-methyl-N-(pyrimidin-4-yl)pyridine-3-sulfonamide], the IC50 was determined as 0.919 nM.

For the origin of these results see patent US20250115576A1, “THERAPEUTIC COMPOUNDS AND METHODS OF USE THEREOF” (Genentech, Inc., priority 2018, published 2025).
